Substitutions are numbered along the chain they refer to.
Legend:
sTAAR365 E7.36D = target: T1, sTAAR365 E7.36D (Petromyzon marinus, UniProt A0A678XMK4, E292D); assay: cell-based
T1 sequence (A0A678XMK4 1-365 E292D): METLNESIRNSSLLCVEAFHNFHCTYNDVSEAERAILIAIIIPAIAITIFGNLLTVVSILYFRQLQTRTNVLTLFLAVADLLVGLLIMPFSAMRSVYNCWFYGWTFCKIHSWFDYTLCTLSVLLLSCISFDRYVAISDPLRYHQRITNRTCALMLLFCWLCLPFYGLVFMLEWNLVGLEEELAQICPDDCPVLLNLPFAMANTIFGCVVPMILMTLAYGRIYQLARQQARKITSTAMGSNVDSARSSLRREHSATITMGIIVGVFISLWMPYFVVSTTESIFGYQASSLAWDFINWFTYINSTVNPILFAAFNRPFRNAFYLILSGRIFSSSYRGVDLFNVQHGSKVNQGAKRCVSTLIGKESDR

sTAAR365 E7.36A = target: T2, sTAAR365 E7.36A (Petromyzon marinus, UniProt A0A678XMK4, E292A); assay: cell-based
T2 sequence (A0A678XMK4 1-365 E292A): T1 sequence (A0A678XMK4 1-365 E292D) with D292A

Rat TAAR9 = target: T3, Rat TAAR9 (Rattus norvegicus, UniProt Q923Y6); assay: CRE-luciferase reporter assay in Hana3A; type: cell-based; conditions: rat TAAR9, ligand 1 mM, Fig. 1B
T3 construct: expressed in transfected cells; host or cells: Hana3A (HEK293-derived)
T3 sequence (Q923Y6 1-338): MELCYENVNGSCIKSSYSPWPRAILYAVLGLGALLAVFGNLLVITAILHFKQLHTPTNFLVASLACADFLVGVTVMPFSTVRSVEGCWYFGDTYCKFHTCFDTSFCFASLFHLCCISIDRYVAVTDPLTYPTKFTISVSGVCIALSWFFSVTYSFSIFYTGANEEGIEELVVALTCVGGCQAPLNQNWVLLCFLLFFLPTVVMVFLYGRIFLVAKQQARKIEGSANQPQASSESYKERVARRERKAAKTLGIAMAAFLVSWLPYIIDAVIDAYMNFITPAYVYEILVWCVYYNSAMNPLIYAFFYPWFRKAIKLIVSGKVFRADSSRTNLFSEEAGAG
Method: We examined the response of TAAR9s from rat, human, hamster, and rabbit to the stimulation of 1 mM amines using a well-established cAMP response element (CRE)-driven luciferase reporter assay based on Golf-mediated cAMP signal transduction ([5], [24]). In addition to the four mTAAR9 ligands, we included putrescine, which is also a polyamine and precursor of spermine/spermidine biosynthesis.
Mammalian TAAR9 plasmids were transfected into Hana3A cells along with a cAMP-dependent luciferase reporter plasmid (CRE-Luc). Transfected cells were incubated with tested ligands, and luciferase activity was quantified with a […] substrate as a reporter for Golf-mediated TAAR activation. Luciferase activity was indicated by the luminescence value and normalized as a fold-increase over the response to the vehicle stimuli (mean ± S.D., n = 3). […] B, Hana3A cells expressing mouse, rat, human, cat, hamster, and rabbit TAAR9 were incubated with either vehicle or tested ligands (1 mM) and assayed for reporter activity. C, concentration-dependent luciferase activity in Hana3A cells expressing mouse, rat, and cat TAAR9 receptors stimulated with cadaverine, spermidine, and spermine.
The firefly luciferase and renilla luciferase activity was measured with a BioTek microplate reader following manufacturer’s instructions.

sTAAR365 W7.40Y = target: T4, sTAAR365 W7.40Y (Petromyzon marinus, UniProt A0A678XMK4, W296Y); assay: cell-based
T4 sequence (A0A678XMK4 1-365 W296Y): T1 sequence (A0A678XMK4 1-365 E292D) with D292E, W296Y

sTAAR365 Y6.51F = target: T5, sTAAR365 Y6.51F (Petromyzon marinus, UniProt A0A678XMK4, Y272F); assay: cell-based
T5 sequence (A0A678XMK4 1-365 Y272F): T1 sequence (A0A678XMK4 1-365 E292D) with Y272F, D292E

| SMILES | EC50 (sTAAR365 E7.36D) [µM] | EC50 (sTAAR365 E7.36A) [µM] | reporter activity (activation of TAAR9) (Rat TAAR9) | EC50 (sTAAR365 W7.40Y) [µM] | EC50 (sTAAR365 Y6.51F) [µM] |
| --- | --- | --- | --- | --- | --- |
| NCCCCCN [cadaverine] | 0.007 ± 0.002 | 0.05 ± 0.02 | maximum responses | 0.127 ± 0.041 | 1.7 ± 0.9 |
| NCCCCN [putrescine] | 72 ± 14 | 420 ± 87 | not activated | > 500 | > 500 |
| NCCCNCCCCNCCCN [spermine] | > 500 | > 500 | maximum responses | 530 ± 259 | 114 ± 20 |

From PMC8546428, “Convergent olfactory trace amine-associated receptors detect biogenic polyamines with distinct motifs via a conserved binding site” (The Journal of Biological Chemistry, 2021)
